Data from PubChem BioAssay (NCI).
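Assay format: 96-well plates, 48-hour exposure. At the GI50, growth is halved. Definition used: TGI = concentration required for complete inhibition of growth.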

Key:
Assay in all cases: NCI tumour cell line growth inhibition, 48 h
IGROV1 ovarian = test system: IGROV1 ovarian
NCI/ADR-RES ovarian = test system: NCI/ADR-RES ovarian
NCI-H226 lung = test system: NCI-H226 lung
786-0 renal = test system: 786-0 renal
ACHN renal = test system: ACHN renal
SK-OV-3 ovarian = test system: SK-OV-3 ovarian
T-47D breast = test system: T-47D breast
HL-60(TB) leukemia = test system: HL-60(TB) leukemia
KM12 colon = test system: KM12 colon
M14 melanoma = test system: M14 melanoma
MCF7 breast = test system: MCF7 breast
UACC-62 melanoma = test system: UACC-62 melanoma
RXF 393 renal = test system: RXF 393 renal
DU-145 prostate = test system: DU-145 prostate
LOX IMVI melanoma = test system: LOX IMVI melanoma
SF-268 CNS = test system: SF-268 CNS
BT-549 breast = test system: BT-549 breast
NCI-H23 lung = test system: NCI-H23 lung
PC-3 prostate = test system: PC-3 prostate
MDA-MB-231 breast = test system: MDA-MB-231 breast
NCI-H522 lung = test system: NCI-H522 lung
SNB-19 CNS = test system: SNB-19 CNS
SK-MEL-5 melanoma = test system: SK-MEL-5 melanoma
NCI-H460 lung = test system: NCI-H460 lung
TK-10 renal = test system: TK-10 renal
SK-MEL-28 melanoma = test system: SK-MEL-28 melanoma
CAKI-1 renal = test system: CAKI-1 renal
HCC-2998 colon = test system: HCC-2998 colon
SNB-75 CNS = test system: SNB-75 CNS
HS 578T breast = test system: HS 578T breast
MALME-3M melanoma = test system: MALME-3M melanoma
A549 NSCLC = test system: A549 NSCLC
HCT-15 colon = test system: HCT-15 colon
COLO 205 colon = test system: COLO 205 colon
SF-295 CNS = test system: SF-295 CNS
OVCAR-3 ovarian = test system: OVCAR-3 ovarian
MOLT-4 leukemia = test system: MOLT-4 leukemia
OVCAR-8 ovarian = test system: OVCAR-8 ovarian
OVCAR-4 ovarian = test system: OVCAR-4 ovarian
SR leukemia = test system: SR leukemia
RPMI-8226 leukemia = test system: RPMI-8226 leukemia
K-562 leukemia = test system: K-562 leukemia
SK-MEL-2 melanoma = test system: SK-MEL-2 melanoma
OVCAR-5 ovarian = test system: OVCAR-5 ovarian
CCRF-CEM leukemia = test system: CCRF-CEM leukemia
MDA-MB-435 = test system: MDA-MB-435
HOP-62 NSCLC = test system: HOP-62 NSCLC
HT29 colon = test system: HT29 colon
SN12C renal = test system: SN12C renal
U251 CNS = test system: U251 CNS
SF-539 CNS = test system: SF-539 CNS
HCT-116 colon = test system: HCT-116 colon
UO-31 renal = test system: UO-31 renal
SW-620 colon = test system: SW-620 colon
HOP-92 NSCLC = test system: HOP-92 NSCLC
A498 renal = test system: A498 renal
UACC-257 melanoma = test system: UACC-257 melanoma

## CCN(Cc1ccc(F)cc1)c1ccc(CO)c(C)c1
IGROV1 ovarian
  GI50: 1.25 µM
  TGI: 6.16 µM
NCI/ADR-RES ovarian
  GI50: 16.8 µM
  TGI: 53.5 µM
NCI-H226 lung
  GI50: 0.291 µM
  TGI: 1.12 µM
786-0 renal
  GI50: 13 µM
  TGI: 29.5 µM
ACHN renal
  GI50: 12.5 µM
  TGI: 39.4 µM
SK-OV-3 ovarian
  GI50: 8.91 µM
  TGI: 41.5 µM
T-47D breast
  GI50: 0.92 µM
  TGI: 6.95 µM
HL-60(TB) leukemia
  GI50: 9.86 µM
  TGI: 39.3 µM
KM12 colon
  GI50: 19.6 µM
  TGI: 45.1 µM
M14 melanoma
  GI50: 14.3 µM
  TGI: 37.6 µM
MCF7 breast
  GI50: 15.1 µM
  TGI: > 52.2 µM
UACC-62 melanoma
  GI50: 1.19 µM
  TGI: 6.87 µM
RXF 393 renal
  GI50: 8.47 µM
  TGI: 23.3 µM
DU-145 prostate
  GI50: 21.1 µM
  TGI: 59.2 µM
LOX IMVI melanoma
  GI50: 14.9 µM
  TGI: 29 µM
SF-268 CNS
  GI50: 24.9 µM
  TGI: > 58.9 µM
BT-549 breast
  GI50: 5.15 µM
  TGI: 24.5 µM
NCI-H23 lung
  GI50: 13.2 µM
  TGI: 37.1 µM
PC-3 prostate
  GI50: 11.6 µM
  TGI: 32.3 µM
MDA-MB-231 breast
  GI50: 16.6 µM
  TGI: 35.7 µM
NCI-H522 lung
  GI50: 8.52 µM
  TGI: 22 µM
SNB-19 CNS
  GI50: 31.4 µM
  TGI: > 100 µM
SK-MEL-5 melanoma
  GI50: 10.2 µM
  TGI: 22.8 µM
NCI-H460 lung
  GI50: 11.5 µM
  TGI: 32.3 µM
TK-10 renal
  GI50: 0.884 µM
  TGI: 4.2 µM
SK-MEL-28 melanoma
  GI50: 13.3 µM
  TGI: 28.6 µM
CAKI-1 renal
  GI50: 3.28 µM
  TGI: 25.5 µM
HCC-2998 colon
  GI50: 14.6 µM
  TGI: 29.4 µM
SNB-75 CNS
  GI50: 4.1 µM
  TGI: 20.2 µM
HS 578T breast
  GI50: 11.7 µM
  TGI: 64.8 µM
MALME-3M melanoma
  GI50: 5.58 µM
  TGI: 17.3 µM
A549 NSCLC
  GI50: 17.1 µM
  TGI: 69.4 µM
HCT-15 colon
  GI50: 8.86 µM
  TGI: 39.4 µM
COLO 205 colon
  GI50: 5.7 µM
  TGI: 19 µM
SF-295 CNS
  GI50: 10.9 µM
  TGI: 32.8 µM
OVCAR-3 ovarian
  GI50: 11.1 µM
  TGI: 24.1 µM
MOLT-4 leukemia
  GI50: 15.5 µM
  TGI: 58.8 µM
OVCAR-8 ovarian
  GI50: 11.9 µM
  TGI: 38.4 µM
OVCAR-4 ovarian
  GI50: 2.46 µM
  TGI: 14.3 µM
SR leukemia
  GI50: 20.3 µM
  TGI: 58.1 µM
RPMI-8226 leukemia
  GI50: 6.69 µM
  TGI: 37.1 µM
K-562 leukemia
  GI50: 9.03 µM
  TGI: > 72.5 µM
SK-MEL-2 melanoma
  GI50: 7.58 µM
  TGI: 22.8 µM
OVCAR-5 ovarian
  GI50: 0.856 µM
  TGI: 4.46 µM
CCRF-CEM leukemia
  GI50: 19.7 µM
  TGI: 59.2 µM
MDA-MB-435
  GI50: 18 µM
  TGI: 45.5 µM
HOP-62 NSCLC
  GI50: 17.7 µM
  TGI: 39.1 µM
HT29 colon
  GI50: 20.7 µM
  TGI: 55.8 µM
SN12C renal
  GI50: 19.3 µM
  TGI: > 82.6 µM
U251 CNS
  GI50: 12.1 µM
  TGI: 40.1 µM
SF-539 CNS
  GI50: 15 µM
  TGI: 29.8 µM
HCT-116 colon
  GI50: 2.02 µM
  TGI: 17.6 µM
UO-31 renal
  GI50: 9.34 µM
  TGI: 25.1 µM
SW-620 colon
  GI50: 14.5 µM
  TGI: 54.1 µM
HOP-92 NSCLC
  GI50: 8.45 µM
  TGI: 27 µM
A498 renal
  GI50: 0.216 µM
  TGI: 1.14 µM
UACC-257 melanoma
  GI50: 2.92 µM
  TGI: 15 µM
